From ChEMBL document CHEMBL1151717, “In vivo active aldosterone synthase inhibitors with improved selectivity: lead optimization providing a series of pyridine substituted 3,4-dihydro-1H-quinolin-2-one derivatives” (J Med Chem, 2008)

Experiments:
[1] = target: T1, Cytochrome P450 1A2 (Homo sapiens, UniProt P05177)
T1 sequence (P05177 whole entry): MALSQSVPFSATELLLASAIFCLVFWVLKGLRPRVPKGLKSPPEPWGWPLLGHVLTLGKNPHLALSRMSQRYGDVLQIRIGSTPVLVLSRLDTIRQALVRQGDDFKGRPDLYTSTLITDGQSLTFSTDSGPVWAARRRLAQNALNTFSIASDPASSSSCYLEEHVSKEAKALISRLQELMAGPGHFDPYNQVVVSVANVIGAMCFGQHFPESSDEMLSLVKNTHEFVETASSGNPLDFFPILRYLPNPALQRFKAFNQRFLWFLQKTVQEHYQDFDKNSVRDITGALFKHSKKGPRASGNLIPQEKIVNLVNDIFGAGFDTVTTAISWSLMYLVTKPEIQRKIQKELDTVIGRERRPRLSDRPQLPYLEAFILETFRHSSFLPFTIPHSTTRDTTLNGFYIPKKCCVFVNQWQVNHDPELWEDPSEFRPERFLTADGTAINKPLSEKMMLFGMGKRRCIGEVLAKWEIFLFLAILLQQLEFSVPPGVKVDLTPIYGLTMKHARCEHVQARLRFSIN

[2] = target: T2, CYP1A2 (Homo sapiens, UniProt P05177); assay: Inhibition of human recombinant CYP1A2 expressed in baculovirus-infected insect microsomes at 2 uM; format: ADME, Microsome
T2 sequence (P05177 whole entry): T1 sequence (P05177 whole entry)

[3] = Tmax in Wistar rat at 5 mg/kg, po by cassette dosing; format: ADME, organism-based; set-up: dose 5 mg/kg, route oral; settings: in vivo
[4] = Protein binding in rat plasma at 3 uM after 1 hr; format: ADME, cell-free; settings: read-out: PPB (converted)
[5] = target: Cytochrome P450 2C9 (Homo sapiens, UniProt P11712); assay: Inhibition of human recombinant CYP2C9 expressed in baculovirus-infected insect microsomes; format: ADME, Microsome
Sequence of Cytochrome P450 2C9 (P11712 whole entry): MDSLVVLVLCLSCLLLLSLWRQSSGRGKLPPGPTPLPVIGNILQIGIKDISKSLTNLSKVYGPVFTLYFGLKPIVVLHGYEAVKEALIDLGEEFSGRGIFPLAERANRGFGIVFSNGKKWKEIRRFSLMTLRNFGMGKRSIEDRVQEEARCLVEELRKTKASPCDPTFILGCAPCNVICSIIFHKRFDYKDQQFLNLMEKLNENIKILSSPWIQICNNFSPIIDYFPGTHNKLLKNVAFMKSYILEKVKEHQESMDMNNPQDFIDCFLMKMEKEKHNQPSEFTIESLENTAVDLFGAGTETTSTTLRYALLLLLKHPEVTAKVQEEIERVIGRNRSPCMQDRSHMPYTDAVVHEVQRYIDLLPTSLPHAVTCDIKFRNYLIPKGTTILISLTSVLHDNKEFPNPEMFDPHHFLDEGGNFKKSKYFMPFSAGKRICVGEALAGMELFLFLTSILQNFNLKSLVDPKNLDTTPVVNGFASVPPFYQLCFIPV

[6] = Protein binding in human plasma at 3 uM after 1 hr; format: ADME, cell-free; settings: read-out: PPB (converted)
[7] = Cmax in Wistar rat at 5 mg/kg, po by cassette dosing; format: ADME, organism-based; set-up: dose 5 mg/kg, route oral; settings: in vivo
[8] = AUC (0 to infinity) in Wistar rat at 5 mg/kg, po by cassette dosing; format: ADME, organism-based; set-up: time infinity, dose 5 mg/kg, route oral; settings: plasma
[9] = Terminal half life in Wistar rat at 5 mg/kg, po by cassette dosing; format: ADME, organism-based; set-up: dose 5 mg/kg, route oral; settings: in vivo, read-out: beta t1/2 (converted)
[10] = target: T3, Cytochrome P450 2B6 (Homo sapiens, UniProt P20813); assay: Inhibition of human recombinant CYP2B6 expressed in baculovirus-infected insect microsomes; format: ADME, Microsome
T3 sequence (P20813 whole entry): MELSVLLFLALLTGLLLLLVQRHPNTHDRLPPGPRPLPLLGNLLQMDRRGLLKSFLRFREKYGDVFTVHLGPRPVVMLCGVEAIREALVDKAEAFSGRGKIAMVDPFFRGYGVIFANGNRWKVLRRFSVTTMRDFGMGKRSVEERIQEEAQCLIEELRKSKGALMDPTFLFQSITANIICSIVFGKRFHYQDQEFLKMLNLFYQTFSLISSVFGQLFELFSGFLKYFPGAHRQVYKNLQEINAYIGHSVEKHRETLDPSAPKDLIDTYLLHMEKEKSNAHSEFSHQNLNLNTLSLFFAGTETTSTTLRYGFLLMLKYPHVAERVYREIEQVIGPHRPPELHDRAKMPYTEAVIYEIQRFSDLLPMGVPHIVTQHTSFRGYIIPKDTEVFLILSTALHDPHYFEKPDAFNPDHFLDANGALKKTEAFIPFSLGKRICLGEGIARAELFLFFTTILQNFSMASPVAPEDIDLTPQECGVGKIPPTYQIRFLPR

[11] = target: Cytochrome P450 2C19 (Homo sapiens, UniProt P33261); assay: Inhibition of human recombinant CYP2C19 expressed in baculovirus-infected insect microsomes; format: ADME, Microsome; settings: read-out: IC50
Sequence of Cytochrome P450 2C19 (P33261 whole entry): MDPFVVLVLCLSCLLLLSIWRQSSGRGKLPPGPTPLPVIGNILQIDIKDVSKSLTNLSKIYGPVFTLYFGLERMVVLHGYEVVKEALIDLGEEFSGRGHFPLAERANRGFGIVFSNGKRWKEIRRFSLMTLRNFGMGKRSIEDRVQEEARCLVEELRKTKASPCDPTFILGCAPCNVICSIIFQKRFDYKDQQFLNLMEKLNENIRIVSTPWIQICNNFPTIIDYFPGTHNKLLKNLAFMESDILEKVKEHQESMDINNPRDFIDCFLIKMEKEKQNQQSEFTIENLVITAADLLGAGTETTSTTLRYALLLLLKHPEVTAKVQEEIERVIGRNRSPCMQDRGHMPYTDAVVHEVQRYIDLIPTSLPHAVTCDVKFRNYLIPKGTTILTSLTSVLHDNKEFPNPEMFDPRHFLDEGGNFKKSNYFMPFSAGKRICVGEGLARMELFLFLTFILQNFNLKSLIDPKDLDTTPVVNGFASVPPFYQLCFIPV

[12] = target: T4, Cytochrome P450 11B2, mitochondrial (Homo sapiens, UniProt P19099)
T4 sequence (P19099 whole entry): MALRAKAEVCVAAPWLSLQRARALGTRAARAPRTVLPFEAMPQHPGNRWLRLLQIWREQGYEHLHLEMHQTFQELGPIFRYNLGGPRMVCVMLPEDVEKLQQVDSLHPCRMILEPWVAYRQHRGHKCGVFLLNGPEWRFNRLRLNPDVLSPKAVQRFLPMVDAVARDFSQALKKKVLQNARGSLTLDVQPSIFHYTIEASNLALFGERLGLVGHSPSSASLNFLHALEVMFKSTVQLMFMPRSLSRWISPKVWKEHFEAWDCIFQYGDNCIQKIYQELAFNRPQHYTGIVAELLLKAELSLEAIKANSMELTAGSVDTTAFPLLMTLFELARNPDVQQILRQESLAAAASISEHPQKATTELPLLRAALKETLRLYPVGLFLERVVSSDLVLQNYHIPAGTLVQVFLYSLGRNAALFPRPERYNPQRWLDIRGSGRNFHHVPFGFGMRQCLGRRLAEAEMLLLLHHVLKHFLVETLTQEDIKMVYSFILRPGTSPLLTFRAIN

[13] = target: T5, Cytochrome P450 11B1, mitochondrial (Homo sapiens, UniProt P15538)
T5 sequence (P15538 whole entry): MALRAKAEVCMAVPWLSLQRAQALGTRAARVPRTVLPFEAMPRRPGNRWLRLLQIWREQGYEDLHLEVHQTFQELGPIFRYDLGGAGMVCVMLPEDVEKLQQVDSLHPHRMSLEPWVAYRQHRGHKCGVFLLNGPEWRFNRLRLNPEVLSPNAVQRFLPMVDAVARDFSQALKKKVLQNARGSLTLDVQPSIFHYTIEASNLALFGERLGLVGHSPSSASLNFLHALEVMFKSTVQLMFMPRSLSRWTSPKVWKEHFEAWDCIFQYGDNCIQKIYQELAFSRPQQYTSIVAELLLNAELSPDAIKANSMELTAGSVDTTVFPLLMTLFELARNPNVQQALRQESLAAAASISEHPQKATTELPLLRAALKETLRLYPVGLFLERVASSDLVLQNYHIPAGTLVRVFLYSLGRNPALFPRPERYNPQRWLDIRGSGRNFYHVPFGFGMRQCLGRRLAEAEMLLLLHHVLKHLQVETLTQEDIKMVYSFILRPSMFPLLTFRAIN

[14] = target: T6, CYP17 (Homo sapiens, UniProt P05093); assay: in vitro; settings: human CYP17 expressed in Escherichia coli
T6 sequence (P05093 whole entry): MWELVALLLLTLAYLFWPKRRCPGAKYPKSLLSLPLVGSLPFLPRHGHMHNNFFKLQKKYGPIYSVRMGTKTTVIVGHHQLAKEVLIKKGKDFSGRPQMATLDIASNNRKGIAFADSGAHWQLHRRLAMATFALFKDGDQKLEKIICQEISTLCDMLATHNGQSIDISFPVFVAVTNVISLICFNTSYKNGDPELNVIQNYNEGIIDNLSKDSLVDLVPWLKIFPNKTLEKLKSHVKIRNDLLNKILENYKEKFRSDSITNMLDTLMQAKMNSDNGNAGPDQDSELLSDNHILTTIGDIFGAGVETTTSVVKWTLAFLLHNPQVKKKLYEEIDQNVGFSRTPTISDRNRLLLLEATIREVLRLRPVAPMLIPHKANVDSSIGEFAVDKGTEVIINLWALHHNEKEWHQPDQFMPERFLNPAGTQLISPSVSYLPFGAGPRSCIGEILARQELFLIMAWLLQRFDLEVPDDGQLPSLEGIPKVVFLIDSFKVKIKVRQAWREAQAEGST
Description: Inhibition of human CYP17 expressed in Escherichia coli at 2.5 uM

[15] = target: T7, CYP19 (aromatase) (Homo sapiens, UniProt P11511); assay: Inhibition of human placental CYP19 at 500 nM; format: functional
T7 sequence (P11511 whole entry): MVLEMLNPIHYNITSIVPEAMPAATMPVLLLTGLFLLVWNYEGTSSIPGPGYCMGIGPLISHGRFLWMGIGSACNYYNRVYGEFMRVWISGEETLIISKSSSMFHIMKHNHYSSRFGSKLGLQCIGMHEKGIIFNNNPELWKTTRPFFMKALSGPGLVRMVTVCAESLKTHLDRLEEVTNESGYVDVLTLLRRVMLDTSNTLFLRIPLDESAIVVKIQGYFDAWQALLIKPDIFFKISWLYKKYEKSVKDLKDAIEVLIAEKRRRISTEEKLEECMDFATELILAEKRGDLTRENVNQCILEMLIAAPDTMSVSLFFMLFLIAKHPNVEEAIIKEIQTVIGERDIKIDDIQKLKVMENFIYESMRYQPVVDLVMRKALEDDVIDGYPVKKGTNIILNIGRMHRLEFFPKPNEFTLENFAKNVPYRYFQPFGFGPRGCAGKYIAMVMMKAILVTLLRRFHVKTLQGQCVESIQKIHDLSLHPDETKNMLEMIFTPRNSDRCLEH

[16] = target: T8, Aromatase (Homo sapiens, UniProt P11511); assay: Inhibition of human placental CYP19; format: functional
T8 sequence (P11511 whole entry): T7 sequence (P11511 whole entry)

[17] = target: T4, Cytochrome P450 11B2, mitochondrial; assay: Inhibition of human CYP11B2 expressed in hamster V79 MZh cells at 500 nM; format: cell-based; settings: V79MZh
[18] = species on record: Homo sapiens; assay: Selectivity ratio, IC50 for human CYP11B1 to IC50 for human CYP11B2

Row | IC50 [1] | inhibition at 2 µM [2] | IC50 [12] | IC50 [13] | inhibition at 2.5 µM [14] | inhibition at 0.5 µM [15] | further results | SMILES
1 | 0.62 µM | 73% | – | – | – | – | – | CCOC1CCc2cc(-c3cccnc3)ccc2C1 (stereo unspecified)
2 | 0.66 µM | 72% | – | – | – | – | – | N#CC1CCc2cc(-c3cccnc3)ccc2C1 (stereo unspecified)
3 | 1.55 µM | 57% | – | – | – | – | Tmax [3]: 4 h; fraction unbound at 1 h, 3 µM [4]: 0.76; IC50 [5]: 123 µM; fraction unbound at 1 h, 3 µM [6]: 0.78; Cmax [7]: 300 ng/mL; AUC(0-inf) [8]: 3180 ng·h/mL; half-life [9]: 2.4 h; IC50 [10]: < 50 µM; IC50 [11]: 147 µM | O=C1CCc2cc(-c3cccnc3)ccc21
4 | 0.64 µM | 77% | 0.0031 µM | 0.58 µM | 72% | < 5% | – | S=C1CCc2cc(-c3cccnc3)ccc2N1
5 | – | – | – | – | 72% | – | IC50 [16]: 0.6 µM | COc1ccc2cc(-c3cccnc3)ccc2c1
6 | – | – | 0.0001 µM | 0.0069 µM | – | – | – | CN1C(=O)CCc2cc(-c3cncc4ccccc34)ccc21
7 | 5.24 µM | 25% | 0.0027 µM | 0.339 µM | 12% | < 5% | inhibition at 0.5 µM [17]: 91%; Ratio IC50 [18]: 126 | COc1cncc(-c2ccc3c(c2)CCC(=O)N3)c1
8 | 30.6 µM | 14% | – | – | 7% | 17% | – | O=C1CCc2cc(-c3cccnc3)cc(Cl)c2N1
9 | 0.6 µM | 74% | 0.044 µM | 4.92 µM | 49% | 23% | inhibition at 0.5 µM [17]: 86%; Ratio IC50 [18]: 112 | OC1CCc2cc(-c3cccnc3)ccc2C1 (stereo unspecified)
10 | – | – | 0.012 µM | 0.525 µM | – | – | – | O=C1CSc2cc(-c3cccnc3)ccc2N1
11 | 16.5 µM | 20% | – | – | < 5% | 5% | – | COc1cncc(-c2ccc3c(c2)CCC(=O)N3C)c1
